Experimental data: patent publication US12102631B2, “Quinolylnitrones for the treatment and prevention of a cerebral stroke or ischaemia” (ISQUAEMIA BIOTECH, S.L., priority 2018, dated 2024)
Read-outs that look alike come from different tables or passages of the source.

How the values were obtained:
tMCAO in C57BL/6 mice [1] = settings: 40 mg/kg; 48 h after treatment; earlier report of the group; cited from earlier work
tMCAO in C57BL/6 mice [2] = assay: Grip strength test after transient middle cerebral artery occlusion (tMCAO); format: in vivo
Description: Animal model of focal cerebral ischemia. Transient occlusion of a distal branch of the middle cerebral artery (tMCAO) was induced in male C57BL/6 mice (9-12 week old, Charles River) as previously described.^57 The animals were housed in a light/dark cycle (12 hour), humidity and temperature (22±2° C.) controlled environment with food and water available ad libitum. Briefly, mice were anesthetized with 4% isoflurane for induction and 1.5-2% isoflurane for maintenance (in 79% N2/21% O2). After drilling a small hole on the temporal bone, the middle cerebral artery (MCA) was compressed for 60 min with a 30-G needle using a micromanipulator. During the surgery, body temperature was maintained between 37.0±0.5° C. using a homoeothermic blanket and CBF was monitored using laser-Doppler flowmetry to confirm MCA occlusion. Buprenorphine (0.05-0.1 mg/kg) was administered subcutaneously immediately before the procedure. A total of 28 mice were subjected to tMCAO according to the design of the study. We performed a power analysis to determine sample size (significance level set at 0.05, the power set at 0.8 (80%)) resulting in 8 animals per experimental group. Surgical inclusion criteria: a reduction in blood flow to <25% of baseline value during ischemia period, and a recovery of 75% of baseline value in the reperfusion period. […] Mice were randomly assigned using a randomization software to the following experimental groups (n=8 per group): vehicle (saline-EtOH 90:10 vol/vol), nitrone 23 (1.5 mg/kg) and nitrone 23 (2.0 mg/kg). The treatments were administered intraperitoneally at the onset of reperfusion period by a blinded investigator. […]
Motor-deficit evaluation, grip strength test. […] A total of 6 trials were conducted for each test and the strength value was calculated as the mean of them.
To assess the neuroprotective effect of QN 23 on experimental ischemic stroke, we induced a transient middle cerebral artery occlusion (tMCAO) and evaluated the motor deficits by grip strength test at 24 h and 48 h after the administration of QN 23. […]

[3] = system: primary neuronal cultures subjected to OGD; assay: Lipid peroxidation (MDA) in primary neuronal cultures after OGD; format: cell-based, rat; settings: 4 h recovery after 4 h OGD; significant at 100 μM
Description: Lipid peroxidation. Lipid peroxidation was evaluated by the detection of end products such as malondialdehyde (MDA) as a result of oxidative attack to polyunsaturated lipids. Lipid peroxidation was determined by the reaction of MDA with thiobarbituric acid (TBA) to form a colorimetric/fluorometric product, proportional to the MDA present. After recovery period for 4 h, cells (1.5×10^6) were lysed and centrifuged according to the supplier instructions (Sigma, MAK085), and then the thiobarbituric acid was added to the supernatant and mixed in a vortex. The samples were incubated at 95° C. for 60 min, cooled to room temperature and then n-butanol and 5M NaCl were added in a reaction mixture 8:3:1 (v/v) sample:n-butanol:NaCl. After mixed in a vortex, the samples were centrifuged, the n-butanol layer was taken and evaporated, the MDA-TBA adducts were dissolve in water and the absorbance was measured at 540 nm.
Exposure of neuronal cultures to 4 h OGD induced significant ROS generation after 2 h recovery in normoxic and normoglycemic conditions (R2 h) (210%, p<0.005 compared with 100% control) (FIG. 5A). […] ROS generation may induce lipid peroxidation and cell membrane damage. […]

[4] = system: primary neuronal cultures subjected to OGD; assay: ROS formation in primary neuronal cultures after OGD; format: cell-based, rat; settings: 2 h recovery after 4 h OGD; significant at 100 μM
Description: Measurement of the ROS formation. To detect the intracellular ROS formation a nonfluorescent and cell permeable reagent was used according to the supplier instructions (Sigma, MAK143). The reagent enters into the cells and reacts with ROS (especially superoxide and hydroxyl radicals) in the cytoplasm, resulting in a fluorometric product proportional to the amount of ROS present. The reagent was added to the cells at the moment that they were subjected to different treatments. After recovery period for 2 h, the fluorescence intensity was at 490 nm λex and 535 nm λem.
Exposure of neuronal cultures to 4 h OGD induced significant ROS generation after 2 h recovery in normoxic and normoglycemic conditions (R2 h) (210%, p<0.005 compared with 100% control) (FIG. 5A). […] ROS generation may induce lipid peroxidation and cell membrane damage. […] The decrease of ROS formation and lipid peroxidation were significant at 100 μM QN 23, in accordance with the concentration at which the QN 23 had the higher neuroprotective activity against experimental ischemia in neuronal cultures (FIG. 4 and Table 1).

tMCAO in C57BL/6 mice [5] = assay: Infarct size (TTC staining) after tMCAO; format: in vivo; settings: 2.0 mg/kg; 48 h after tMCAO
Description: Animal model of focal cerebral ischemia. Transient occlusion of a distal branch of the middle cerebral artery (tMCAO) was induced in male C57BL/6 mice (9-12 week old, Charles River) as previously described.^57 The animals were housed in a light/dark cycle (12 hour), humidity and temperature (22±2° C.) controlled environment with food and water available ad libitum. Briefly, mice were anesthetized with 4% isoflurane for induction and 1.5-2% isoflurane for maintenance (in 79% N2/21% O2). After drilling a small hole on the temporal bone, the middle cerebral artery (MCA) was compressed for 60 min with a 30-G needle using a micromanipulator. During the surgery, body temperature was maintained between 37.0±0.5° C. using a homoeothermic blanket and CBF was monitored using laser-Doppler flowmetry to confirm MCA occlusion. […]
Infarct volume evaluation. The size of infarction was evaluated at 48 hours after MCAO using 2,3,5-tetrazolium chloride (TTC) staining.^58 Mice were sacrificed by transcardial perfusion with ice-cold saline under deep anesthesia. […] The infarct areas were measured using the Image-J software and the infarct volume was determined by linear integration of the measured lesion areas and distances over the sections. […]
To examine the efficacy of QN 23 treatment in animals subjected to tMCAO, the infarct size was calculated 48 h after tMCAO model induction. […]

Row | Compound | improvement of grip strength (tMCAO in C57BL/6 mice [1]) [%] | motor deficit compared with vehicle (in words) (tMCAO in C57BL/6 mice [2]; 1.5 mg/kg and 2.0 mg/kg, 48 h after treatment) | grip strength compared with vehicle (in words) (tMCAO in C57BL/6 mice [2]; 2.0 mg/kg, 24 h after treatment) | improvement of grip strength (tMCAO in C57BL/6 mice [2]; 48 h after treatment) [%] | lipid peroxidation [3] | ROS formation [4] | size of the ischemic lesion (in words) (tMCAO in C57BL/6 mice [5])
1 | CC(C)(C)/[N+]([O-])=C/c1ccc(S(=O)(=O)O)cc1S(=O)(=O)O [Compound 2, sodium (Z)-4-((tert-butyloxidoazanylidene)methyl)benzene-1,3-disulfonate, reference compound] | 11.8 |  |  |  |  |  | 
2 | COc1ccc2nc(Cl)c(/C=[N+](\[O-])C(C)(C)C)cc2c1 [Compound 23, (Z)—N-tert-Butyl-1-(2-chloro-6-methoxyquinolin-3-yl)methanimine oxide] |  | significant decrease of motor deficit | improvement in the grip strength which was significant | 20.7 | significantly decreased compared to R4 h value | significantly decreased to the control value | significantly lower than in vehicle treated animals
